# Laboratory results: patent US6822146B2, “Sulfonylurea-tolerant sunflower line M7” (priority 2000, dated 2004)
# Read-outs that look alike come from different tables or passages of the source.
# Experiments:
# GA-M4M11 × RHA274 = experiment: Test A field trial, phytotoxicity, variety D; assay type: in vivo, sunflower; conditions: variety D
# From the text: (§1) To generate the hybrids C, D and E, the fourth generation self-pollinated maintainer mutant lines M4M12, M4M11 and M4M7 were chemically sterilized by applying at the bud “star” flower stage a small amount of gibberellic acid solution to sterilize the pollen according to the general method described in Sunflower Science Technology, J. F. Carter ed. (Number 19 in the series “Agronomy”) pp. 339-386. This treatment enables maintainer plants to behave as CMS inbred lines and allows the production of heterozygous resistant hybrids, with the herbicide resistant source coming from the female side. Such crosses allowed evaluating the sexual effect of the mutation source when introduced on the female side of a cross as described in crosses C, D and E versus the male side of a cross as described in crosses F, G and H. Labels I, J and K identify third generation CMS mutant lines crossed with fourth generation maintainer lines to maintain the highly heritable mutant trait in a male sterile homozygous resistant environment. One skilled in sunflower breeding art understands the meaning of such crosses.
# (§2) A rating of 0% phytotoxicity means no crop injury.
# BC3-M4M12 = experiment: Test A field trial, phytotoxicity, variety I; assay type: in vivo, sunflower; conditions: variety I
# From the text: as §1, §2
# BC3-M4M11 = experiment: Test A field trial, phytotoxicity, variety J; assay type: in vivo, sunflower; conditions: variety J
# From the text: as §1, §2
# H89A × M4M11 = assay type: in vivo, sunflower; conditions: variety G
# From the text: as §1, §2
# H89A × M4M7 = assay type: in vivo, sunflower; conditions: variety H
# From the text: as §1, §2
# [1] = tested on: Inbred line control: H89A; assay type: in vivo, sunflower; conditions: variety B
# From the text: as §1, §2
# H89A × M4M12 = assay type: in vivo, sunflower; conditions: variety F
# From the text: as §1, §2
# [2] = tested on: Hybrid control: H89A × RHA274; assay type: in vivo, sunflower; conditions: variety A
# From the text: as §1, §2
# GA-M4M12 × RHA274 = experiment: Test A field trial, phytotoxicity, variety C; assay type: in vivo, sunflower; conditions: variety C
# From the text: as §1, §2
# BC4-M5M7 × PHA155 = experiment: Test C field phytotoxicity, BC4-M5M7 × PHA155; assay type: in vivo, sunflower
# From the text: as §2
# GA-M4M7 × RHA274 = experiment: Test A field trial, phytotoxicity, variety E; assay type: in vivo, sunflower; conditions: variety E
# From the text: as §1, §2
# BC3-M4M7 = experiment: Test A field trial, phytotoxicity, variety K; assay type: in vivo, sunflower; conditions: variety K
# From the text: as §1, §2
# [3] = tested on: Homozygous resistant inbred lines, BC3-M4M12 (I), BC3-M4M11 (J) and BC3-M4M7 (K); experiment: Test A summary, homozygous resistant inbred lines; conditions: Test A application rates; for tolerance of homozygous resistant inbred lines I, J, K: triflusulfuron-methyl at 20 g a.i./ha
# Procedure: In a small field trial, the sunflower varieties described in Table 4 were sprayed post-emergence with a variety of sulfonylurea herbicide treatments.
# Broadcast post-emergence applications of formulated sulfonylurea herbicides were performed at the 6-leaf development stage using four randomly distributed replications. Application rates were chosen to match the usual use rates of these herbicides in the crops they are registered in Europe. All herbicides except for metsulfuron-methyl were sprayed in combination with Citowet® non-ionic ethoxylated alcohol at 0.25% volume of formulated product per volume of water applied per hectare.
# The evaluation of the maximum (i.e. peak) injury to sunflower varieties by sulfonylurea herbicides was measured by visual ratings, which are listed in Table 5. A rating of 0% phytotoxicity means no crop injury. […] A rating of 100% means the complete destruction of all plants.
# BC4-M5M12 × PHA155 = experiment: Test C field phytotoxicity, BC4-M5M12 × PHA155; assay type: in vivo, sunflower
# From the text: as §2
# Matricaria inodora = experiment: Test H weed control, field plots; assay type: in vivo; design: concentration or dose not given beside the values; conditions: 36 days after treatment; g a.i./ha: tribenuron-methyl 22.5, metsulfuron-methyl 6, ethametsulfuron-methyl 16, imazapyr isopropylamine salt 15, aclonifen 1200
# From the text: (§3) Field plots (2 m×5 m) were tilled to remove weed cover and then seeded in rows with the following weeds: Capsella bursa pastoris, Atriplex patula, Chenopodium album, Stellaria media, Mecurialis annua, Polygonum persicaria, Amaranthus retroflexus, Polygonum convolvulus, Polygonum aviculare, Viola arvensis, Matricaria inodora, Anagallis arvensis, Sinapis arvensis, Setaria viridis, Solanum nigrum and Echinochloa crusgalli. After 21 days from sowing, at which time the weeds had reached the 2- to 6-leaf stage, herbicide treatments were applied to the plots according to a complete randomized block design, with each herbicide treatment triply replicated. The herbicides were sprayed using standard flat fan nozzles moved perpendicular to the sown lines using water spray volumes of about 296 L/ha.
# (§4) Assessments of weed control were made by visual inspection 36 days after herbicide treatment. A visual rating system was used based on a percentage scale from 0 to 100% compared to an adjacent untreated control plot. On this scale 0 represents no visual differences relative to an untreated control and 100 represents complete control of the given weed species.
# Mercurialis annua = experiment: Test H weed control, field plots; assay type: in vivo; design: concentration or dose not given beside the values; conditions: 36 days after treatment; g a.i./ha: tribenuron-methyl 22.5, metsulfuron-methyl 6, ethametsulfuron-methyl 16, imazapyr isopropylamine salt 15, aclonifen 1200
# From the text: as §3, §4
# Polygonum aviculare = experiment: Test H weed control, field plots; assay type: in vivo; design: concentration or dose not given beside the values; conditions: 36 days after treatment; g a.i./ha: tribenuron-methyl 22.5, metsulfuron-methyl 6, ethametsulfuron-methyl 16, imazapyr isopropylamine salt 15, aclonifen 1200
# From the text: as §3, §4
# Amaranthus retroflexus = experiment: Test H weed control, field plots; assay type: in vivo; design: concentration or dose not given beside the values; conditions: 36 days after treatment; g a.i./ha: tribenuron-methyl 22.5, metsulfuron-methyl 6, ethametsulfuron-methyl 16, imazapyr isopropylamine salt 15, aclonifen 1200
# From the text: as §3, §4
# Polygonum persicaria = experiment: Test H weed control, field plots; assay type: in vivo; design: concentration or dose not given beside the values; conditions: 36 days after treatment; g a.i./ha: tribenuron-methyl 22.5, metsulfuron-methyl 6, ethametsulfuron-methyl 16, imazapyr isopropylamine salt 15, aclonifen 1200
# From the text: as §3, §4
# Anagallis arvensis = experiment: Test H weed control, field plots; assay type: in vivo; design: concentration or dose not given beside the values; conditions: 36 days after treatment; g a.i./ha: tribenuron-methyl 22.5, metsulfuron-methyl 6, ethametsulfuron-methyl 16, imazapyr isopropylamine salt 15, aclonifen 1200
# From the text: as §3, §4
# Echinochloa crus-galli = experiment: Test H weed control, field plots; assay type: in vivo; design: concentration or dose not given beside the values; conditions: 36 days after treatment; g a.i./ha: tribenuron-methyl 22.5, metsulfuron-methyl 6, ethametsulfuron-methyl 16, imazapyr isopropylamine salt 15, aclonifen 1200
# From the text: as §3, §4
# Atriplex patula = experiment: Test H weed control, field plots; assay type: in vivo; design: concentration or dose not given beside the values; conditions: 36 days after treatment; g a.i./ha: tribenuron-methyl 22.5, metsulfuron-methyl 6, ethametsulfuron-methyl 16, imazapyr isopropylamine salt 15, aclonifen 1200
# From the text: as §3, §4
# Setaria viridis = experiment: Test H weed control, field plots; assay type: in vivo; design: concentration or dose not given beside the values; conditions: 36 days after treatment; g a.i./ha: tribenuron-methyl 22.5, metsulfuron-methyl 6, ethametsulfuron-methyl 16, imazapyr isopropylamine salt 15, aclonifen 1200
# From the text: as §3, §4
# Solanum nigrum = experiment: Test H weed control, field plots; assay type: in vivo; design: concentration or dose not given beside the values; conditions: 36 days after treatment; g a.i./ha: tribenuron-methyl 22.5, metsulfuron-methyl 6, ethametsulfuron-methyl 16, imazapyr isopropylamine salt 15, aclonifen 1200
# From the text: as §3, §4
# Capsella bursa pastoris = experiment: Test H weed control, field plots; assay type: in vivo; design: concentration or dose not given beside the values; conditions: 36 days after treatment; g a.i./ha: tribenuron-methyl 22.5, metsulfuron-methyl 6, ethametsulfuron-methyl 16, imazapyr isopropylamine salt 15, aclonifen 1200
# From the text: as §3, §4
# Viola arvensis = experiment: Test H weed control, field plots; assay type: in vivo; design: concentration or dose not given beside the values; conditions: 36 days after treatment; g a.i./ha: tribenuron-methyl 22.5, metsulfuron-methyl 6, ethametsulfuron-methyl 16, imazapyr isopropylamine salt 15, aclonifen 1200
# From the text: as §3, §4
# Polygonum convolvulus = experiment: Test H weed control, field plots; assay type: in vivo; design: concentration or dose not given beside the values; conditions: 36 days after treatment; g a.i./ha: tribenuron-methyl 22.5, metsulfuron-methyl 6, ethametsulfuron-methyl 16, imazapyr isopropylamine salt 15, aclonifen 1200
# From the text: as §3, §4
# Sinapis arvensis = experiment: Test H weed control, field plots; assay type: in vivo; design: concentration or dose not given beside the values; conditions: 36 days after treatment; g a.i./ha: tribenuron-methyl 22.5, metsulfuron-methyl 6, ethametsulfuron-methyl 16, imazapyr isopropylamine salt 15, aclonifen 1200
# From the text: as §3, §4
# Stellaria media = experiment: Test H weed control, field plots; assay type: in vivo; conditions: 36 days after treatment; g a.i./ha: tribenuron-methyl 22.5, metsulfuron-methyl 6, ethametsulfuron-methyl 16, imazapyr isopropylamine salt 15, aclonifen 1200
# From the text: as §3, §4
# Chenopodium album = experiment: Test H weed control, field plots; assay type: in vivo; conditions: 36 days after treatment; g a.i./ha: tribenuron-methyl 22.5, metsulfuron-methyl 6, ethametsulfuron-methyl 16, imazapyr isopropylamine salt 15, aclonifen 1200
# From the text: as §3, §4
# [4] = postemergence 18.75 g a.i./ha, 7 DAT
# [5] = postemergence 18.75 g a.i./ha, 15 DAT
# [6] = postemergence 18.75 g a.i./ha, 30 DAT
# [7] = postemergence 37.5 g a.i./ha, 7 DAT
# [8] = postemergence 37.5 g a.i./ha, 15 DAT
# [9] = postemergence 37.5 g a.i./ha, 30 DAT
smiles,measurement,setting,value
"COc1cc(OC)nc(NC(=O)NS(=O)(=O)c2ncccc2C(=O)N(C)C)n1 [Nicosulfuron, nicosulfuron]",Maximum Phytotoxicity,GA-M4M11 × RHA274; 30 g a.i./ha post-emergence,13%
same,Maximum Phytotoxicity,BC3-M4M12; 30 g a.i./ha post-emergence,8%
same,Maximum Phytotoxicity,BC3-M4M11; 30 g a.i./ha post-emergence,23%
same,Maximum Phytotoxicity,H89A × M4M11; 30 g a.i./ha post-emergence,20%
same,Maximum Phytotoxicity,H89A × M4M7; 30 g a.i./ha post-emergence,16%
same,Maximum Phytotoxicity,[1]; 30 g a.i./ha post-emergence,54%
same,Maximum Phytotoxicity,H89A × M4M12; 30 g a.i./ha post-emergence,15%
same,Maximum Phytotoxicity,[2]; 30 g a.i./ha post-emergence,33%
same,Maximum Phytotoxicity,GA-M4M12 × RHA274; 30 g a.i./ha post-emergence,12%
same,Phytotoxicity Rating After Treatment,BC4-M5M7 × PHA155; [4],37%
same,Phytotoxicity Rating After Treatment,BC4-M5M7 × PHA155; [5],40%
same,Phytotoxicity Rating After Treatment,BC4-M5M7 × PHA155; [6],18%
same,Phytotoxicity Rating After Treatment,BC4-M5M7 × PHA155; [7],57%
same,Phytotoxicity Rating After Treatment,BC4-M5M7 × PHA155; [8],55%
same,Phytotoxicity Rating After Treatment,BC4-M5M7 × PHA155; [9],50%
same,Maximum Phytotoxicity,GA-M4M7 × RHA274; 30 g a.i./ha post-emergence,13%
same,Maximum Phytotoxicity,BC3-M4M7; 30 g a.i./ha post-emergence,14%
same,tolerance of homozygous resistant lines compared with heterozygous hybrids,[3],the homozygous resistant lines were more tolerant
same,"tolerance of homozygous resistant inbred lines I, J, K",[3],marginally tolerant
same,Phytotoxicity Rating After Treatment,BC4-M5M12 × PHA155; [4],28%
same,Phytotoxicity Rating After Treatment,BC4-M5M12 × PHA155; [5],20%
same,Phytotoxicity Rating After Treatment,BC4-M5M12 × PHA155; [6],18%
same,Phytotoxicity Rating After Treatment,BC4-M5M12 × PHA155; [7],42%
same,Phytotoxicity Rating After Treatment,BC4-M5M12 × PHA155; [8],52%
same,Phytotoxicity Rating After Treatment,BC4-M5M12 × PHA155; [9],50%
"COc1nc(C)nc(NC(=O)NS(=O)(=O)c2ccccc2OCCCl)n1 [Triasulfuron, triasulfuron]",Maximum Phytotoxicity,GA-M4M11 × RHA274; 20 g a.i./ha post-emergence,99%
same,Maximum Phytotoxicity,BC3-M4M12; 20 g a.i./ha post-emergence,93%
same,Maximum Phytotoxicity,BC3-M4M11; 20 g a.i./ha post-emergence,95%
same,Maximum Phytotoxicity,H89A × M4M11; 20 g a.i./ha post-emergence,98%
same,Maximum Phytotoxicity,H89A × M4M7; 20 g a.i./ha post-emergence,98%
same,Maximum Phytotoxicity,[1]; 20 g a.i./ha post-emergence,100%
same,Maximum Phytotoxicity,H89A × M4M12; 20 g a.i./ha post-emergence,98%
same,Maximum Phytotoxicity,[2]; 20 g a.i./ha post-emergence,100%
same,Maximum Phytotoxicity,GA-M4M12 × RHA274; 20 g a.i./ha post-emergence,94%
same,Maximum Phytotoxicity,GA-M4M7 × RHA274; 20 g a.i./ha post-emergence,97%
same,Maximum Phytotoxicity,BC3-M4M7; 20 g a.i./ha post-emergence,95%
same,"tolerance of homozygous resistant inbred lines I, J, K",[3],as susceptible as the standards
"Nc1c([N+](=O)[O-])ccc(Oc2ccccc2)c1Cl [Aclonifen, aclonifen]","weed control, visual rating: Matricaria inodora",Matricaria inodora,0%
same,"weed control, visual rating: Mercurialis annua",Mercurialis annua,50%
same,"weed control, visual rating: Polygonum aviculare",Polygonum aviculare,30%
same,"weed control, visual rating: Amaranthus retroflexus",Amaranthus retroflexus,40%
same,"weed control, visual rating: Polygonum persicaria",Polygonum persicaria,70%
same,"weed control, visual rating: Anagallis arvensis",Anagallis arvensis,100%
same,"weed control, visual rating: Echinochloa crus-galli",Echinochloa crus-galli,0%
same,"weed control, visual rating: Atriplex patula",Atriplex patula,0%
same,"weed control, visual rating: Setaria viridis",Setaria viridis,40%
same,"weed control, visual rating: Solanum nigrum",Solanum nigrum,20%
same,"weed control, visual rating: Capsella bursa pastoris",Capsella bursa pastoris,100%
same,"weed control, visual rating: Viola arvensis",Viola arvensis,57%
same,"weed control, visual rating: Polygonum convolvulus",Polygonum convolvulus,23%
same,"weed control, visual rating: Sinapis arvensis",Sinapis arvensis,100%
same,"weed control, visual rating: Stellaria media",Stellaria media,100%
same,"weed control, visual rating: Chenopodium album",Chenopodium album,100%
